{"source": "paper PMC5218480", "about": "(PLoS ONE, 2017)", "system": "MV-4-11 cells", "test": "Gene expression microarray analysis (Affymetrix PrimeView) and GSEA", "type": "cell-based, human", "parameters": "RFU PODN (11730768_x_at) / Fold change /veh PODN (11730768_x_at) / RFU LINC00158 (11744669_a_at) / Fold change /veh LINC00158 (11744669_a_at) / RFU DUSP10 (11751237_a_at) / Fold change /veh DUSP10 (11751237_a_at) / RFU ID3 (11757404_x_at) / Fold change /veh ID3 (11757404_x_at) / RFU PLEKHG5 (11737974_s_at) / Fold change /veh PLEKHG5 (11737974_s_at) / RFU LRRC4B (11730491_at) / Fold change /veh LRRC4B (11730491_at) / RFU GIMAP4 (11747438_a_at) / Fold change /veh GIMAP4 (11747438_a_at) / RFU KRT8 (11758183_x_at) / Fold change /veh KRT8 (11758183_x_at) / RFU CNN1 (11734310_a_at) / Fold change /veh CNN1 (11734310_a_at) / RFU VPS37D (11726825_at) / Fold change /veh VPS37D (11726825_at) / RFU C10orf10 (11716522_x_at) / Fold change /veh C10orf10 (11716522_x_at) / RFU KIR2DL2 /// KIR2DL4 /// KIR2DL5A /// KIR2DL5B /// KIR2DS1 /// KIR2DS2 /// KIR2DS3 /// KIR2DS4 /// KIR3DL3 /// KIR3DL3 /// KIR3DS1 (11738374_at) / Fold change /veh KIR2DL2 /// KIR2DL4 /// KIR2DL5A /// KIR2DL5B /// KIR2DS1 /// KIR2DS2 /// KIR2DS3 /// KIR2DS4 /// KIR3DL3 /// KIR3DL3 /// KIR3DS1 (11738374_at) / RFU C1QL1 (11718748_at) / Fold change /veh C1QL1 (11718748_at) / RFU TMPRSS4 (11747572_a_at) / Fold change /veh TMPRSS4 (11747572_a_at) / RFU HAMP (11756126_x_at) / Fold change /veh HAMP (11756126_x_at) / RFU RNFT2 (11725882_a_at) / Fold change /veh RNFT2 (11725882_a_at) / RFU NR4A2 (11747474_a_at) / Fold change /veh NR4A2 (11747474_a_at) / RFU ABCC12 (11746883_a_at) / Fold change /veh ABCC12 (11746883_a_at) / RFU TMEM136 (11760407_x_at) / Fold change /veh TMEM136 (11760407_x_at) / RFU CLDN22 /// WWC2 (11732394_at) / Fold change /veh CLDN22 /// WWC2 (11732394_at) / RFU HLA-DPB1 (11760878_x_at) / Fold change /veh HLA-DPB1 (11760878_x_at) / RFU SPINT1 (11716480_a_at) / Fold change /veh SPINT1 (11716480_a_at) / RFU GAP43 (11754022_s_at) / Fold change /veh GAP43 (11754022_s_at) / RFU A4GNT (11735810_at) / Fold change /veh A4GNT (11735810_at) / RFU PRB3 (11715151_x_at) / Fold change /veh PRB3 (11715151_x_at) / RFU TUBB4B (11761932_at) / Fold change /veh TUBB4B (11761932_at) / RFU CAPN14 (11732068_a_at) / Fold change /veh CAPN14 (11732068_a_at) / RFU TMCC2 (11721928_a_at) / Fold change /veh TMCC2 (11721928_a_at) / RFU IRGQ (11745062_a_at) / Fold change /veh IRGQ (11745062_a_at) / RFU FAM174B (11720279_a_at) / Fold change /veh FAM174B (11720279_a_at) / RFU TMPRSS4 (11748680_a_at) / Fold change /veh TMPRSS4 (11748680_a_at) / RFU FAM212B (11763350_a_at) / Fold change /veh FAM212B (11763350_a_at) / RFU PLEKHG5 (11743358_a_at) / Fold change /veh PLEKHG5 (11743358_a_at) / RFU ZSCAN30 (11745921_a_at) / Fold change /veh ZSCAN30 (11745921_a_at) / RFU CMKLR1 (11741424_a_at) / Fold change /veh CMKLR1 (11741424_a_at) / RFU LOC101060620 /// MAPK8IP1 (11723275_at) / Fold change /veh LOC101060620 /// MAPK8IP1 (11723275_at) / RFU SPTSSB (11747773_x_at) / Fold change /veh SPTSSB (11747773_x_at) / RFU PRSS12 (11739890_at) / Fold change /veh PRSS12 (11739890_at) / RFU BIN1 (11741810_x_at) / Fold change /veh BIN1 (11741810_x_at) / RFU WNT11 (11732464_a_at) / Fold change /veh WNT11 (11732464_a_at) / RFU C10orf10 (11716521_a_at) / Fold change /veh C10orf10 (11716521_a_at) / RFU C5orf56 (11738089_at) / Fold change /veh C5orf56 (11738089_at) / RFU CYB561 (11721691_x_at) / Fold change /veh CYB561 (11721691_x_at) / RFU ANKRD19P (11752326_a_at) / Fold change /veh ANKRD19P (11752326_a_at) / RFU OR2T12 /// OR2T33 /// OR2T8 (11738714_s_at) / Fold change /veh OR2T12 /// OR2T33 /// OR2T8 (11738714_s_at) / RFU VCAN (11748164_a_at) / Fold change /veh VCAN (11748164_a_at) / RFU JSRP1 (11732532_at) / Fold change /veh JSRP1 (11732532_at) / RFU KRTAP10-11 (11738290_x_at) / Fold change /veh KRTAP10-11 (11738290_x_at) / RFU MYO3A (11730013_a_at) / Fold change /veh MYO3A (11730013_a_at) / RFU EBF3 (11725865_a_at) / Fold change /veh EBF3 (11725865_a_at) / RFU CAMK2N1 (11719241_x_at) / Fold change /veh CAMK2N1 (11719241_x_at) / RFU C5orf56 (11738088_a_at) / Fold change /veh C5orf56 (11738088_a_at) / RFU OLFML3 (11715873_a_at) / Fold change /veh OLFML3 (11715873_a_at) / RFU LOC100653217 /// NTM (11731650_a_at) / Fold change /veh LOC100653217 /// NTM (11731650_a_at) / RFU MAPK11 (11762145_a_at) / Fold change /veh MAPK11 (11762145_a_at) / RFU FIZ1 (11724087_x_at) / Fold change /veh FIZ1 (11724087_x_at) / RFU OASL (11726364_x_at) / Fold change /veh OASL (11726364_x_at) / RFU SOX15 (11748057_x_at) / Fold change /veh SOX15 (11748057_x_at) / RFU CD79A (11719716_a_at) / Fold change /veh CD79A (11719716_a_at) / RFU HIST1H1D (11736915_at) / Fold change /veh HIST1H1D (11736915_at) / RFU CASKIN2 (11723855_a_at) / Fold change /veh CASKIN2 (11723855_a_at) / RFU LOC730098 (11760151_x_at) / Fold change /veh LOC730098 (11760151_x_at) / RFU OR4N2 (11742367_at) / Fold change /veh OR4N2 (11742367_at) / RFU PRRT2 (11749266_a_at) / Fold change /veh PRRT2 (11749266_a_at) / RFU SNX32 (11753110_a_at) / Fold change /veh SNX32 (11753110_a_at) / RFU CDHR5 (11726645_a_at) / Fold change /veh CDHR5 (11726645_a_at) / RFU RCAN1 (11760418_a_at) / Fold change /veh RCAN1 (11760418_a_at) / RFU FAM167A (11723789_a_at) / Fold change /veh FAM167A (11723789_a_at) / RFU FAM26E (11764081_at) / Fold change /veh FAM26E (11764081_at) / RFU ISYNA1 (11749810_s_at) / Fold change /veh ISYNA1 (11749810_s_at) / RFU ACY1 (11761880_at) / Fold change /veh ACY1 (11761880_at) / RFU 11764098_at / Fold change /veh 11764098_at / RFU SAMD14 (11745864_x_at) / Fold change /veh SAMD14 (11745864_x_at) / RFU NPB (11741838_a_at) / Fold change /veh NPB (11741838_a_at) / RFU TMPRSS6 (11731388_a_at) / Fold change /veh TMPRSS6 (11731388_a_at) / RFU KRTAP10-2 (11738614_at) / Fold change /veh KRTAP10-2 (11738614_at) / RFU ARHGAP8 /// PRR5-ARHGAP8 (11727945_x_at) / Fold change /veh ARHGAP8 /// PRR5-ARHGAP8 (11727945_x_at) / RFU KRTAP5-7 /// NADSYN1 (11734609_at) / Fold change /veh KRTAP5-7 /// NADSYN1 (11734609_at) / RFU RASL12 (11751679_a_at) / Fold change /veh RASL12 (11751679_a_at) / RFU CDKN2B (11736163_a_at) / Fold change /veh CDKN2B (11736163_a_at) / RFU PRF1 (11729649_at) / Fold change /veh PRF1 (11729649_at) / RFU, ZNF638 /// ZNF638-IT1 / Fold change vs veh, ZNF638 /// ZNF638-IT1 / RFU, PANK3 / Fold change vs veh, PANK3 / RFU, SH3YL1 / Fold change vs veh, SH3YL1 / RFU, ZEB2 / Fold change vs veh, ZEB2 / RFU, NRIP1 / Fold change vs veh, NRIP1 / RFU, PTTG1IP / Fold change vs veh, PTTG1IP / RFU, CAPN2 / Fold change vs veh, CAPN2 / RFU, MED14 / Fold change vs veh, MED14 / RFU, SNORA58 / Fold change vs veh, SNORA58 / RFU, C1orf63 / Fold change vs veh, C1orf63 / RFU, LRRFIP1 / Fold change vs veh, LRRFIP1 / RFU, NDUFAF7 / Fold change vs veh, NDUFAF7 / RFU, SLC12A2 / Fold change vs veh, SLC12A2 / RFU, IBTK / Fold change vs veh, IBTK / RFU, ESF1 / Fold change vs veh, ESF1 / Fold change vs veh, TMEM50B / RFU, TAOK1 / Fold change vs veh, TAOK1 / RFU, ACBD3 / Fold change vs veh, ACBD3 / RFU, TMA16 / Fold change vs veh, TMA16 / RFU, RWDD3 / Fold change vs veh, RWDD3 / RFU, BCAT1 / Fold change vs veh, BCAT1 / RFU, EDEM3 / Fold change vs veh, EDEM3 / RFU, TMEM33 / Fold change vs veh, TMEM33 / RFU, WDR75 / Fold change vs veh, WDR75 / RFU, AHCTF1 / Fold change vs veh, AHCTF1 / RFU, TFRC / Fold change vs veh, TFRC / RFU, ZDHHC17 / Fold change vs veh, ZDHHC17 / RFU, NOM1 / Fold change vs veh, NOM1 / RFU, ARL8B / Fold change vs veh, ARL8B / RFU, ZBTB11 / Fold change vs veh, ZBTB11 / RFU, TAMM41 / Fold change vs veh, TAMM41 / RFU, KIAA1704 /// LOC100996395 / Fold change vs veh, KIAA1704 /// LOC100996395 / RFU, ING1 / Fold change vs veh, ING1 / RFU, TRMT61B / Fold change vs veh, TRMT61B / RFU, FUBP3 / Fold change vs veh, FUBP3 / RFU, TP53 / Fold change vs veh, TP53 / RFU, TNKS2 / Fold change vs veh, TNKS2 / RFU, ZFP14 / Fold change vs veh, ZFP14 / RFU, ACTR2 / Fold change vs veh, ACTR2 / RFU, PPP3R1 / Fold change vs veh, PPP3R1 / RFU, PIK3R1 / Fold change vs veh, PIK3R1 / RFU, HNRNPA1 / Fold change vs veh, HNRNPA1 / RFU, RNF170 / Fold change vs veh, RNF170 / RFU, ZNF28 / Fold change vs veh, ZNF28 / RFU, RNGTT / Fold change vs veh, RNGTT / RFU, OGT / Fold change vs veh, OGT / RFU, BRD1 / Fold change vs veh, BRD1 / RFU, MARS / Fold change vs veh, MARS / RFU, ZNF655 / Fold change vs veh, ZNF655 / RFU, FAHD1 / Fold change vs veh, FAHD1 / RFU, BDP1 / Fold change vs veh, BDP1 / RFU, LRRCC1 / Fold change vs veh, LRRCC1 / RFU, ARID1A / Fold change vs veh, ARID1A / RFU, ZNF146 / Fold change vs veh, ZNF146 / RFU, ZNF330 / Fold change vs veh, ZNF330 / RFU, GPN3 / Fold change vs veh, GPN3 / RFU, C9orf123 / Fold change vs veh, C9orf123 / RFU, N4BP2L2 / Fold change vs veh, N4BP2L2 / RFU, ARFIP1 / Fold change vs veh, ARFIP1 / RFU, FAM179B / Fold change vs veh, FAM179B / RFU, BCL10 / Fold change vs veh, BCL10 / RFU, UHRF1BP1L / Fold change vs veh, UHRF1BP1L / RFU, BET1 / Fold change vs veh, BET1 / RFU, CNOT2 / Fold change vs veh, CNOT2 / RFU, ZNF268 / Fold change vs veh, ZNF268 / Fold change vs veh, ZNF507 / RFU, DGCR2 / Fold change vs veh, DGCR2 / RFU, WDSUB1 / Fold change vs veh, WDSUB1 / Fold change vs veh, HSP90B1 /// MIR3652 / RFU, ADSS / Fold change vs veh, ADSS / RFU, GK / Fold change vs veh, GK / RFU, ZNF148 / Fold change vs veh, ZNF148 / RFU, TAF9 / Fold change vs veh, TAF9 / RFU, SLC1A5 / Fold change vs veh, SLC1A5 / RFU, SLMO2 / Fold change vs veh, SLMO2 / RFU, ABCC4 / Fold change vs veh, ABCC4 / RFU, LOC101060439 /// RAP1B / Fold change vs veh, LOC101060439 /// RAP1B / RFU, RFX7 / Fold change vs veh, RFX7 / RFU, GTPBP10 / Fold change vs veh, GTPBP10 / RFU, CNEP1R1 / Fold change vs veh, CNEP1R1 / RFU, BIVM-ERCC5 /// ERCC5 / Fold change vs veh, BIVM-ERCC5 /// ERCC5 / RFU, ILF3 / Fold change vs veh, ILF3 / RFU 11762660_at / Fold change /veh 11762660_at / RFU VCAN (11757783_s_at) / Fold change /veh VCAN (11757783_s_at) / RFU DDX43 (11728927_at) / Fold change /veh DDX43 (11728927_at) / RFU KRT8 (11758188_x_at) / Fold change /veh KRT8 (11758188_x_at) / RFU NKD1 (11759106_at) / Fold change /veh NKD1 (11759106_at) / RFU SRD5A1 (11742802_a_at) / Fold change /veh SRD5A1 (11742802_a_at) / RFU TPSAB1 /// TPSB2 (11721975_s_at) / Fold change /veh TPSAB1 /// TPSB2 (11721975_s_at) / RFU GSTM3 (11746129_a_at) / Fold change /veh GSTM3 (11746129_a_at) / RFU IL23R (11737362_x_at) / Fold change /veh IL23R (11737362_x_at) / RFU TMEM51 (11727254_a_at) / Fold change /veh TMEM51 (11727254_a_at) / RFU PIWIL2 (11732686_x_at) / Fold change /veh PIWIL2 (11732686_x_at) / RFU ORM1 (11744905_x_at) / Fold change /veh ORM1 (11744905_x_at) / RFU CCDC152 (11743942_at) / Fold change /veh CCDC152 (11743942_at) / RFU ECM1 (11717891_a_at) / Fold change /veh ECM1 (11717891_a_at) / RFU IL23R (11748794_a_at) / Fold change /veh IL23R (11748794_a_at) / RFU TNFAIP8L3 (11732012_x_at) / Fold change /veh TNFAIP8L3 (11732012_x_at) / RFU MBOAT4 (11741988_at) / Fold change /veh MBOAT4 (11741988_at) / RFU 11764193_at / Fold change /veh 11764193_at / RFU TMEM53 (11763286_at) / Fold change /veh TMEM53 (11763286_at) / RFU MAGEB2 (11727129_at) / Fold change /veh MAGEB2 (11727129_at) / RFU TMEM200A (11744735_a_at) / Fold change /veh TMEM200A (11744735_a_at) / RFU CCDC152 (11751479_a_at) / Fold change /veh CCDC152 (11751479_a_at) / RFU FAM211A (11726209_a_at) / Fold change /veh FAM211A (11726209_a_at) / RFU RGS16 (11746705_a_at) / Fold change /veh RGS16 (11746705_a_at) / RFU VCAN (11755009_s_at) / Fold change /veh VCAN (11755009_s_at) / RFU RHOB (11743442_s_at) / Fold change /veh RHOB (11743442_s_at) / RFU RGS16 (11720943_a_at) / Fold change /veh RGS16 (11720943_a_at) / RFU RGS16 (11720944_at) / Fold change /veh RGS16 (11720944_at) / RFU, VPS4B / Fold change vs veh, VPS4B / RFU, CREB1 / Fold change vs veh, CREB1 / RFU, DNAJC13 / Fold change vs veh, DNAJC13 / RFU, GNAQ / Fold change vs veh, GNAQ / RFU, CDK5R1 / Fold change vs veh, CDK5R1 / RFU, ZRANB3 / Fold change vs veh, ZRANB3 / RFU, CUL4A / Fold change vs veh, CUL4A / RFU, CCNY / Fold change vs veh, CCNY / RFU, UFL1 / Fold change vs veh, UFL1 / RFU, COG3 / Fold change vs veh, COG3 / RFU, DIAPH2 / Fold change vs veh, DIAPH2 / RFU, SKA2 / Fold change vs veh, SKA2 / RFU, AFF3 / Fold change vs veh, AFF3 / RFU, LMF1 / Fold change vs veh, LMF1 / RFU, IPO11 / Fold change vs veh, IPO11 / RFU, DFFB / Fold change vs veh, DFFB / RFU, FOXP1 / Fold change vs veh, FOXP1 / RFU, CARD8 / Fold change vs veh, CARD8 / RFU, STRN3 / Fold change vs veh, STRN3 / RFU, ADK / Fold change vs veh, ADK / RFU, RASSF2 / Fold change vs veh, RASSF2 / RFU, WIPF1 / Fold change vs veh, WIPF1 / RFU, LARP1B / Fold change vs veh, LARP1B / RFU, RASA1 / Fold change vs veh, RASA1 / RFU, RB1 / Fold change vs veh, RB1 / RFU, PPFIA1 / Fold change vs veh, PPFIA1 / RFU, MAT2A / Fold change vs veh, MAT2A / RFU, CCT5 / Fold change vs veh, CCT5 / RFU, WDR92 / Fold change vs veh, WDR92 / RFU, CUX1 / Fold change vs veh, CUX1 / RFU, TTC7A / Fold change vs veh, TTC7A / RFU, TMEM135 / Fold change vs veh, TMEM135 / RFU, DEPTOR / Fold change vs veh, DEPTOR / RFU, CPM / Fold change vs veh, CPM / RFU, DNAJB6 / Fold change vs veh, DNAJB6 / RFU, CACNA2D3 / Fold change vs veh, CACNA2D3 / RFU, DTX4 / Fold change vs veh, DTX4 / RFU, TFCP2 / Fold change vs veh, TFCP2 / RFU, GMCL1 /// GMCL1P1 / Fold change vs veh, GMCL1 /// GMCL1P1 / RFU, AEBP2 / Fold change vs veh, AEBP2 / RFU, SNHG1 /// SNORD22 /// SNORD25 /// SNORD26 /// SNORD27 /// SNORD28 /// SNORD29 /// SNORD31 / Fold change vs veh, SNHG1 /// SNORD22 /// SNORD25 /// SNORD26 /// SNORD27 /// SNORD28 /// SNORD29 /// SNORD31 / Fold change (Aza/veh), C12orf56 (ProbeSet 11735607_a_at) / Fold change (ACY-1035/veh), C12orf56 (ProbeSet 11735607_a_at) / Fold change (Aza/veh), FGFR1OP (ProbeSet 11751329_s_at) / Fold change (ACY-1035/veh), FGFR1OP (ProbeSet 11751329_s_at) / Fold change (Aza/veh), VPS36 (ProbeSet 11739960_a_at) / Fold change (ACY-1035/veh), VPS36 (ProbeSet 11739960_a_at) / RFU SYPL1 (11715823_x_at) / Fold change /veh SYPL1 (11715823_x_at) / RFU IGFBP7 (11715501_s_at) / Fold change /veh IGFBP7 (11715501_s_at) / RFU REEP3 (11722064_at) / Fold change /veh REEP3 (11722064_at) / RFU IGLL1 (11728026_x_at) / Fold change /veh IGLL1 (11728026_x_at): dose or concentration left out as unconfirmed", "details": "gene C12orf56; Azacitidine vs DMSO; LIST F", "data": [{"smiles": "Nc1ncn([C@@H]2O[C@H](CO)[C@@H](O)[C@H]2O)c(=O)n1", "note": "[azacitidine]", "values": [{"measurement": "Fold change (Aza/veh), C12orf56 (ProbeSet 11735607_a_at)", "value": 1.01}]}]}
